“And” between values parts separate entries of the source, which are not always exact repeats. Identical values can stand only once.
System: 616215-338-R-J1-PDC complex spheroids, viability % test/control
Assay: Anticancer human tumor 616215-338-R-J1-PDC patient-derived colon adenocarcinoma cell line growth inhibition [CLK]
Conditions: for viability, T/C: stronger effect = lower value
From the text: A high-throughput screen of multi-cell type tumor spheroids was designed to identify active combinations of […] and targeted small molecules. Complex spheroids include a stromal component modeled by human endothelial cells (HUVEC) and fibroblasts modeled by human mesenchymal stem cells (MSCs). The concentration ranges selected for each drug and investigational agent were based upon clinically achievable concentrations if the clinical Cmax of the agent was known.
Compounds. The drugs and investigational agents: cirtuvivint (SM08502; NSC835563), CC-671 (NSC850746), vemurafenib (NSC761431), tapotoclax (NSC804041), sotorasib (NSC818433), adagrasib (NSC831453), MRTX-1133 (NSC836407), BAY2416964 (NSC825713), copanlisib (NSC816437), inavolisib (NSC800729), abemaciclib (NSC768073), osimertinib (NSC779217), entinostat (NSC756642), eltanexor (KPT-8602, NSC794443), venetoclax (NSC766270), ceralasertib (NSC777638), bortezomib (NSC756655), olaparib (NSC753686), talazoparib (NSC767125), alisertib (NSC759677), peposertib (NSC802822), gemcitabine (NSC613327), 5-fluorouracil (NSC19893), SN-38 (NSC673596), oxaliplatin (NSC266046), paclitaxel (NSC125973), and doxorubicin (NSC123127), were obtained from the National Cancer Institute (NCI) Developmental Therapeutics Program Chemical Repository. The FDA-approved anticancer drug set is available from the Developmental Therapeutics Program at https://dtp.cancer.gov/organization/dscb/obtaining/available plates.htm. […] The stock solutions were prepared in dimethyl sulfoxide (DMSO, Sigma-Aldrich, St. Louis, MO, cat. D2650), except for the platinum complexes which were prepared in saline (Quality Biological, Gaithersburg, MD, cat. 114-055-101), at 800-fold the tested concentration and stored at -70 degrees C prior to their use. All drugs and investigational agents were tested over a range starting from a high concentration at or near the clinical Cmax and decreasing in half-log increments. If the clinical Cmax for an agent had not been determined, the highest concentration tested was 10 microM.
Cell Culture. All cells were maintained in an incubator at 37 degrees C and 5% CO2 with 95% humidity. The PDC lines were cultured according to standard operating procedures established by the NCI PDMR. Briefly, all PDCs were thawed and cultured in Matrigel-coated flasks prepared with a working solution of 1X Ham's F-12 nutrient mix, without supplementation (Invitrogen, Waltham, MA, cat. 11765054), 100 U/mL penicillin-streptomycin (Invitrogen, cat. 15140122), and 2.5% Matrigel (Corning Inc., Corning, NY, cat. 354248) for the first three passages. The 947758-054-R-J2-PDC line was cultured in 6B/Colon 1A media, which includes advanced DMEM/F-12 (Thermo Fisher Scientific, cat. 12634028), 10 mM HEPES (Thermo Fisher Scientific, cat. 15630080), 1X GlutaMAX supplement (Thermo Fisher Scientific, cat. 35050061), 0.1 mg/mL primocin (InvivoGen, cat. ant-pm-2), 10% defined fetal bovine serum, heat inactivated (HyClone Laboratories Inc., cat. SH30070.03HI), 1.25 mM N-Acetyl-L-cysteine (Sigma-Aldrich, cat. A9165), 10 mM nicotinamide (Sigma-Aldrich, cat. N0636), 1X B-27 supplement (Thermo Fisher Scientific, cat. 17504044), 1X N-2 supplement (Thermo Fisher Scientific, cat. 17502048), and 10 microM Y-27632 dihydrochloride (Tocris Bioscience, cat. 1254). The 876862-298-R-J1-PDC was cultured in 6E media, which includes all 6B/Colon 1A media components plus 50% L-WRN conditioned media (ATCC, cat. CRL-3276), 50 ng/mL recombinant human EGF recombinant protein (hEGF; Thermo Fisher Scientific, cat. PHG0311), 10 ng/mL recombinant human fibroblast growth factor 10 (hGFG-10; PeproTech, cat. 100-26), 1 ng/mL recombinant human fibroblast growth factor 2 (hFGF-2; PeproTech, cat. 100-18B), and 1 µM prostaglandin E2 (PGE2; Tocris, cat. 2296). The 227483-062-R1-J1-PDC line was cultured in Panc media, containing all 6E components except hFGF-2, with the addition of 500 nM SB-431542 (Selleckchem, cat. S1067) and 10 nM gastrin (Tocris, cat. 3006). […]

[1] = curve of first compound, second compound 0.0316 µM
[2] = curve of first compound, second compound 0.1 µM
[3] = curve of first compound, second compound 0.316 µM
[4] = curve of first compound, second compound 1 µM
[5] = curve of first compound, second compound 3.16 µM
[6] = curve of first compound, second compound 10 µM
[7] = second compound 0.0316 µM, first compound 0.0316 µM
[8] = second compound 0.0316 µM, first compound 0.1 µM
[9] = second compound 0.0316 µM, first compound 0.316 µM
[10] = second compound 0.0316 µM, first compound 1 µM
[11] = second compound 0.1 µM, first compound 0.0316 µM
[12] = second compound 0.1 µM, first compound 0.1 µM
[13] = second compound 0.1 µM, first compound 0.316 µM
[14] = second compound 0.1 µM, first compound 1 µM
[15] = second compound 0.316 µM, first compound 0.0316 µM
[16] = second compound 0.316 µM, first compound 0.1 µM
[17] = second compound 0.316 µM, first compound 0.316 µM
[18] = second compound 0.316 µM, first compound 1 µM
[19] = second compound 1 µM, first compound 0.0316 µM
[20] = second compound 1 µM, first compound 0.1 µM
[21] = second compound 1 µM, first compound 0.316 µM
[22] = second compound 1 µM, first compound 1 µM
[23] = second compound 3.16 µM, first compound 0.0316 µM
[24] = second compound 3.16 µM, first compound 0.1 µM
[25] = second compound 3.16 µM, first compound 0.316 µM
[26] = second compound 3.16 µM, first compound 1 µM
[27] = second compound 10 µM, first compound 0.0316 µM
[28] = second compound 10 µM, first compound 0.1 µM
[29] = second compound 10 µM, first compound 0.316 µM
[30] = second compound 10 µM, first compound 1 µM
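Also: spheroids exposed to agents for 7 days.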
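For viability, T/C in this document: 100% = DMSO vehicle wells.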

CCN1CCN(Cc2ccc(Nc3ncc(F)c(-c4cc(F)c5nc(C)n(C(C)C)c5c4)n3)nc2)CC1 + CNC(=O)c1ccc(Nc2nc(OC3CCCC3)c3c(-c4ccc5nc(C)oc5c4)c[nH]c3n2)c(OC)c1
IC50 [1]: 928 nM
IC50 [2]: 285 nM
IC50 [3]: < 3.16 nM
IC50 [4]: 136 nM
IC50 [5]: 357 nM
IC50 [6]: < 3.16 nM
viability, T/C (second compound 0.0316 µM, first compound 0.00316 µM): 83%
viability, T/C (second compound 0.0316 µM, first compound 0.01 µM): 93.2%
viability, T/C [7]: 95.5%
viability, T/C [8]: 137%
viability, T/C [9]: 130%
viability, T/C [10]: 46%
viability, T/C (second compound 0.1 µM, first compound 0.00316 µM): 51.6%
viability, T/C (second compound 0.1 µM, first compound 0.01 µM): 55%
viability, T/C [11]: 56.3%
viability, T/C [12]: 58%
viability, T/C [13]: 48.1%
viability, T/C [14]: 26.7%
viability, T/C (second compound 0.316 µM, first compound 0.00316 µM): 45.5%
viability, T/C (second compound 0.316 µM, first compound 0.01 µM): 49.2%
viability, T/C [15]: 53.5%
viability, T/C [16]: 50.3%
viability, T/C [17]: 47.9%
viability, T/C [18]: 28.2%
viability, T/C (second compound 1 µM, first compound 0.00316 µM): 51.8%
viability, T/C (second compound 1 µM, first compound 0.01 µM): 49.1%
viability, T/C [19]: 59.6%
viability, T/C [20]: 55%
viability, T/C [21]: 39.5%
viability, T/C [22]: 28.6%
viability, T/C (second compound 3.16 µM, first compound 0.00316 µM): 47.4%
viability, T/C (second compound 3.16 µM, first compound 0.01 µM): 50.3%
viability, T/C [23]: 53%
viability, T/C [24]: 54.1%
viability, T/C [25]: 61.2%
viability, T/C [26]: 22.7%
viability, T/C (second compound 10 µM, first compound 0.00316 µM): 41.6%
viability, T/C (second compound 10 µM, first compound 0.01 µM): 46.8%
viability, T/C [27]: 58.5%
viability, T/C [28]: 52.2%
viability, T/C [29]: 46%
viability, T/C [30]: 29.2%

CC1COCCN1c1cc(C2(S(C)(=N)=O)CC2)nc(-c2ccnc3[nH]ccc23)n1 (stereo not drawn)
viability, T/C (compound 0.0316 µM): 94.9% and 102%
viability, T/C (compound 0.1 µM): 107% and 96.5%
viability, T/C (compound 0.316 µM): 97.7% and 96.1%
viability, T/C (compound 1 µM): 99.8% and 94.2%
viability, T/C (compound 3.16 µM): 105% and 106%
viability, T/C (compound 10 µM): 78.6% and 92.2%
IC50 (curve of compound): > 10000 nM

CC(CO)NC(=O)c1cc(-c2ccc(Cl)cc2)nn(-c2cnn(C)c2)c1=O (stereo not drawn)
viability, T/C (compound 0.0316 µM): 90.7% and 94.5%
viability, T/C (compound 0.1 µM): 95.2% and 99.6%
viability, T/C (compound 0.316 µM): 101% and 96%
viability, T/C (compound 1 µM): 102% and 99.1%
viability, T/C (compound 3.16 µM): 110% and 95%
viability, T/C (compound 10 µM): 103% and 106%
IC50 (curve of compound): > 10000 nM

CC(=O)O[C@H]1C(=O)[C@@]2(C)[C@H]([C@H](OC(=O)c3ccccc3)[C@]3(O)C[C@H](OC(=O)[C@H](O)[C@@H](NC(=O)c4ccccc4)c4ccccc4)C(C)=C1C3(C)C)[C@]1(OC(C)=O)CO[C@@H]1C[C@@H]2O + CNC(=O)c1ccc(Nc2nc(OC3CCCC3)c3c(-c4ccc5nc(C)oc5c4)c[nH]c3n2)c(OC)c1
IC50 [1]: < 31.6 nM
IC50 [2]: < 31.6 nM
IC50 [3]: < 31.6 nM
IC50 [4]: < 31.6 nM
IC50 [5]: < 31.6 nM
IC50 [6]: < 31.6 nM
viability, T/C [7]: 35%
viability, T/C [8]: 27.8%
viability, T/C [9]: 23.3%
viability, T/C [10]: 27%
viability, T/C (second compound 0.0316 µM, first compound 3.16 µM): 30.8%
viability, T/C (second compound 0.0316 µM, first compound 10 µM): 36.2%
viability, T/C [11]: 39.9%
viability, T/C [12]: 37.7%
viability, T/C [13]: 35.2%
viability, T/C [14]: 38.9%
viability, T/C (second compound 0.1 µM, first compound 3.16 µM): 41%
viability, T/C (second compound 0.1 µM, first compound 10 µM): 44.2%
viability, T/C [15]: 34.8%
viability, T/C [16]: 40%
viability, T/C [17]: 32%
viability, T/C [18]: 38.3%
viability, T/C (second compound 0.316 µM, first compound 3.16 µM): 58.5%
viability, T/C (second compound 0.316 µM, first compound 10 µM): 46%
viability, T/C [19]: 45.6%
viability, T/C [20]: 53.2%
viability, T/C [21]: 56.6%
viability, T/C [22]: 60.6%
viability, T/C (second compound 1 µM, first compound 3.16 µM): 59.5%
viability, T/C (second compound 1 µM, first compound 10 µM): 58.1%
viability, T/C [23]: 34.3%
viability, T/C [24]: 51.5%
viability, T/C [25]: 63.4%
viability, T/C [26]: 63%
viability, T/C (second compound 3.16 µM, first compound 3.16 µM): 72.1%
viability, T/C (second compound 3.16 µM, first compound 10 µM): 63.9%
viability, T/C [27]: 39.5%
viability, T/C [28]: 43.2%
viability, T/C [29]: 70.7%
viability, T/C [30]: 75%
viability, T/C (second compound 10 µM, first compound 3.16 µM): 62.7%
viability, T/C (second compound 10 µM, first compound 10 µM): 62%
